Experimental data as given in ChEMBL document CHEMBL1148765, “Design, synthesis, and estrogenic activity of a novel estrogen receptor modulator--a hybrid structure of 17beta-estradiol and vitamin E in hippocampal neurons” (J Med Chem, 2007).

Columns and labels:
[1] = Increase in spinophilin expression in rat hippocampal neurons at 10 nM after 48 hrs by Western immunoblotting relative to control; assay type: functional, Hippocampus, Hippocampal neurone
[2] = Effect on glutamate-induced neurotoxicity in rat hippocampal neurons assessed increase in neuronal membrane integrity at 10 nM after 48 hrs relative to glutamate; assay type: functional, Hippocampus, Hippocampal neurone
[3] = Effect on glutamate-induced loss of metabolic viability in rat hippocampal neurons assessed as increase in neuronal viability at 100 nM after 48 hrs relative to glutamate; assay type: functional, Hippocampus, Hippocampal neurone
Estrogen receptor = target: T1, Estrogen receptor (Homo sapiens, UniProt P03372)
T1 sequence (P03372 whole entry): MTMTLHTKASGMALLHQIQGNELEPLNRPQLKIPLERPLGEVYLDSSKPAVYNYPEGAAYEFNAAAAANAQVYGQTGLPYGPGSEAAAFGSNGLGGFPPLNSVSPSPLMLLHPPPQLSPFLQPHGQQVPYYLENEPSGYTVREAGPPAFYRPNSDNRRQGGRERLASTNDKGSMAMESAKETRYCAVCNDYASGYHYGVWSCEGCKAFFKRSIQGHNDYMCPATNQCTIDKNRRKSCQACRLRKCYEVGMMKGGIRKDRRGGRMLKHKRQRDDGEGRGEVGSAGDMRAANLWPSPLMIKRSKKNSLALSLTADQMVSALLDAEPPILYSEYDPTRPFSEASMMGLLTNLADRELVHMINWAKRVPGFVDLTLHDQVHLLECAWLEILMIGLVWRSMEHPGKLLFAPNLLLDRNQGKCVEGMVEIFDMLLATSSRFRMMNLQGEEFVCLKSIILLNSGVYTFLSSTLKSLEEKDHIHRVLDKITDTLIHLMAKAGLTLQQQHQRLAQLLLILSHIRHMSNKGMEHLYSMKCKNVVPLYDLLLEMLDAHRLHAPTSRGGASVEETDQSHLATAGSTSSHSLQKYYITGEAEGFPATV
Description: Binding affinity to human ERalpha

[4] = Effect on glutamate-induced loss of metabolic viability in rat hippocampal neurons assessed as increase in neuronal viability at 1000 nM after 48 hrs relative to glutamate; assay type: functional, Hippocampus, Hippocampal neurone
[5] = Increase in Bcl2 expression in rat hippocampal neurons at 10 nM after 48 hrs by Western immunoblotting relative to control; assay type: functional, Hippocampus, Hippocampal neurone
Hippocampal neurone = test: Increase in Akt phosphorylation in rat hippocampal neurons at 100 nM after 30 mins by Western immunoblotting relative to control; assay type: tissue-based; conditions: Hippocampus
[6] = Increase in ERK2 phosphorylation in rat hippocampal neurons at 100 nM after 30 mins by Western immunoblotting relative to control; assay type: functional, Hippocampus, Hippocampal neurone
[7] = Increase in Bcl-XL expression in rat hippocampal neurons at 10 nM after 48 hrs by Western immunoblotting relative to control; assay type: functional, Hippocampus, Hippocampal neurone
Estrogen receptor beta = Estrogen receptor beta (Homo sapiens, UniProt Q92731)
Estrogen receptor beta, sequence (Q92731 whole entry): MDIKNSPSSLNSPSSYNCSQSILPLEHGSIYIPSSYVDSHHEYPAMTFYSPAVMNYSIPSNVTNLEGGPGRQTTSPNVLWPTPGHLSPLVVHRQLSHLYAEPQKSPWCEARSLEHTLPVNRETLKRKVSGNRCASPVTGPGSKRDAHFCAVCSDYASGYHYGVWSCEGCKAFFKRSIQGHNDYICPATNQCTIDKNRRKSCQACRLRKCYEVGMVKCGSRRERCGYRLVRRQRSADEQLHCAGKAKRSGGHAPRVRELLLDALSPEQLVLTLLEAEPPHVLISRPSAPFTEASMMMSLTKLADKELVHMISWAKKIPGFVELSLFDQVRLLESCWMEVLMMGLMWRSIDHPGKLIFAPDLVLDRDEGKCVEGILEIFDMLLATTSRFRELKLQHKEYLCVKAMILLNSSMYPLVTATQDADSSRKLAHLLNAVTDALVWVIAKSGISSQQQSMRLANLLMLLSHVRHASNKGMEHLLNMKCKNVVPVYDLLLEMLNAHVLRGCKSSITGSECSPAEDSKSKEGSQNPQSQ
Description: Binding affinity to human ERbeta

[8] = Effect on glutamate-induced neurotoxicity in rat hippocampal neurons assessed increase in neuronal membrane integrity at 1000 nM after 48 hrs relative to glutamate; assay type: functional, Hippocampus, Hippocampal neurone
[9] = Effect on glutamate-induced loss of metabolic viability in rat hippocampal neurons assessed as increase in neuronal viability at 1 nM after 48 hrs relative to glutamate; assay type: functional, Hippocampus, Hippocampal neurone
[10] = Effect on glutamate-induced neurotoxicity in rat hippocampal neurons assessed increase in neuronal membrane integrity at 1 nM after 48 hrs relative to glutamate; assay type: functional, Hippocampus, Hippocampal neurone
[11] = Effect on glutamate-induced neurotoxicity in rat hippocampal neurons assessed increase in neuronal membrane integrity at 100 nM after 48 hrs relative to glutamate; assay type: functional, Hippocampus, Hippocampal neurone
[12] = Effect on glutamate-induced loss of metabolic viability in rat hippocampal neurons assessed as increase in neuronal viability at 10 nM after 48 hrs relative to glutamate; assay type: functional, Hippocampus, Hippocampal neurone
Homo sapiens = organism: Homo sapiens; test: Selectivity for ERbeta over ERalpha

Row | Structure (SMILES) | Activity [1] [%] | Activity [2] [%] | Activity [3] [%] | IC50 (Estrogen receptor) [nM] | Activity [4] [%] | Activity [5] [%] | Activity (Hippocampal neurone) [%] | Activity [6] [%] | Activity [7] [%] | IC50 (Estrogen receptor beta) [nM] | Activity [8] [%] | Activity [9] [%] | Activity [10] [%] | Activity [11] [%] | Activity [12] [%] | Selectivity ratio (Homo sapiens)
1 | CC(C)CCC[C@@H](C)CCC[C@@H](C)CCC[C@@H]1Cc2cc(O)ccc2[C@H]2CC[C@]3(C)[C@@H](O)CC[C@H]3[C@H]12 | 61.7 | 44.1 | 28.4 | 193 | 25.6 | 23.4 | 139 | 46.3 | 58 | 267 | 59.1 | 2.7 | 38.6 | 67 | 9.3 | –
2 | Oc1ccc(/C=C/c2cc(O)cc(O)c2)cc1 | – | – | – | – | – | – | – | – | – | – | – | – | – | – | – | 48
